From paper PMC6730544 (ACS infectious diseases, 2019)

How the values were obtained:
Type in all cases: biochemical
[1] = target: T1, LpxH (UDP-2,3-diacylglucosamine pyrophosphatase) (Escherichia coli, UniProt P43341); test: AaLpxE-coupled malachite green assay, dose-response
[2] = target: T1, LpxH (UDP-2,3-diacylglucosamine pyrophosphatase); test: AaLpxE-coupled malachite green assay, residual activity at […]
[3] = target: T1, LpxH (UDP-2,3-diacylglucosamine pyrophosphatase); test: as above; remark: listed apart in the source

T1 sequence (P43341 whole entry): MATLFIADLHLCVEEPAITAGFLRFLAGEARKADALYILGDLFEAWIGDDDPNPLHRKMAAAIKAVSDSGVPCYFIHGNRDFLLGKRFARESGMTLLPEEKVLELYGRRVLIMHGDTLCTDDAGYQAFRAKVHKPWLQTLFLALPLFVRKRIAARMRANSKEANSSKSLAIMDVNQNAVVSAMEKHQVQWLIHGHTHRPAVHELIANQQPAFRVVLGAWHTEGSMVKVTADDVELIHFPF

| SMILES | 10 μM compound / Percentage Activity [2] | 1 μM compound / Percentage Activity [3] | also measured |
| --- | --- | --- | --- |
| CC(=O)N1CCc2cc(S(=O)(=O)N3CCN(c4cccc(C(F)(F)F)c4)CC3)ccc21 [AZ1] | – | – | IC50 [1]: 0.147 ± 0.002 µM |
| CC(=O)N1CCc2cc(S(=O)(=O)N3CCN(c4cccc(C(C)C)c4)CC3)ccc21 [3d, JH-LPH-26] | 29 ± 3 | – | – |
| CC(=O)N1CCc2cc(S(=O)(=O)N3CCN(c4cccc(-c5ccccc5)c4)CC3)ccc21 [3e, JH-LPH-25] | – | 45 ± 10 | – |
| O=C(O)CCC(=O)N1CCc2cc(S(=O)(=O)N3CCN(c4cccc(Br)c4)CC3)ccc21 [22b, JH-LPH-08] | – | 52 ± 11 | – |
| CC(=O)N1CCc2cc(S(=O)(=O)N3CCN(c4cccc(Br)c4)CC3)ccc21 [3a, JH-LPH-06] | – | – | activity at 1 µM ([3]; read-out: 1 μM compound / Percentage Activity): 26 ± 8% |
| COC(=O)CCC(=O)N1CCc2cc(S(=O)(=O)N3CCN(c4cccc(Br)c4)CC3)ccc21 [22a, JH-LPH-07] | – | 53 ± 11 | – |
| CC(=O)Nc1ccc(S(=O)(=O)N2CCN(c3cccc(C(F)(F)F)c3)CC2)cc1 [compound 11, JH-LPH-15] | – | – | activity at 10 µM ([2]; read-out: 10 μM compound / Percentage Activity): 30 ± 11% |
| CC(=O)N1CCc2cc(S(=O)(=O)N3CCN(c4ccccc4)CC3)ccc21 [3b, JH-LPH-09] | 32 ± 9 | – | – |
| CCc1cccc(N2CCN(S(=O)(=O)c3ccc4c(c3)CCN4C(C)=O)CC2)c1 [3c, JH-LPH-24] | 21 ± 2 | – | – |
